Results published in ChEMBL document CHEMBL4699440, “Comprehensive review on the anti-bacterial activity of 1,2,3-triazole hybrids” (Eur J Med Chem, 2019).
Converted amounts (≈) assume the structure as drawn. Values belong to the molecule of their own block, whether it stands above or below them.

Columns and labels:
Bacillus cereus = experiment: Antibacterial activity against Bacillus cereus ATCC 10876 incubated for 24 hrs by microdilution method; assay type: functional
Enterococcus faecalis [1] = experiment: Antibacterial activity against Enterococcus faecalis ATCC 29212 incubated for 24 hrs by microdilution method; assay type: functional
Staphylococcus aureus [2] = experiment: Antibacterial activity against Staphylococcus aureus ATCC 25923 incubated for 24 hrs by microdilution method; assay type: functional
Proteus mirabilis = experiment: Antibacterial activity against Proteus mirabilis ATCC 35659 incubated for 24 hrs by microdilution method; assay type: functional
Escherichia coli [3] = experiment: Antibacterial activity against Escherichia coli ATCC 25922 incubated for 24 hrs by microdilution method; assay type: functional
Pseudomonas aeruginosa [4] = experiment: Antibacterial activity against Pseudomonas aeruginosa ATCC 27853 incubated for 24 hrs by microdilution method; assay type: functional
Candida albicans = experiment: Antifungal activity against Candida albicans ATCC 50193 incubated for 24 hrs by microdilution method; assay type: functional
Aspergillus brasiliensis = experiment: Antifungal activity against Aspergillus brasiliensis ATCC 16404 incubated for 24 hrs by microdilution method; assay type: functional
Pseudomonas aeruginosa [5] = experiment: Antibacterial activity against Pseudomonas aeruginosa 12 incubated for 20 hrs by agar dilution method; assay type: functional
Escherichia coli [6] = experiment: Antibacterial activity against Escherichia coli NIHJ JC2 incubated for 20 hrs by agar dilution method; assay type: functional
Staphylococcus aureus [7] = experiment: Antibacterial activity against Staphylococcus aureus 209P JC1 incubated for 20 hrs by agar dilution method; assay type: functional
Streptococcus pneumoniae = experiment: Antibacterial activity against Streptococcus pneumoniae RCMB 010010 by broth dilution method; assay type: functional
Bacillus subtilis = experiment: Antibacterial activity against Bacillus subtilis RCMB 010067 by broth dilution method; assay type: functional
Staphylococcus aureus [8] = experiment: Antibacterial activity against Staphylococcus aureus RCMB 010025 by broth dilution method; assay type: functional
Pseudomonas aeruginosa [9] = experiment: Antibacterial activity against Pseudomonas aeruginosa RCMB 010043 by broth dilution method; assay type: functional
Escherichia coli [10] = experiment: Antibacterial activity against Escherichia coli RCMB 010052 by broth dilution method; assay type: functional
Klebsiella pneumoniae [11] = experiment: Antibacterial activity against Klebsiella pneumonia RCMB 010058 by broth dilution method; assay type: functional
Salmonella enterica = experiment: Antibacterial activity against Salmonella enterica MTCC 3224 incubated overnight by broth dilution technique; assay type: functional, organism-based
Pseudomonas aeruginosa [12] = experiment: Antibacterial activity against Pseudomonas aeruginosa MTCC 2453 incubated overnight by broth dilution technique; assay type: functional, organism-based
Enterococcus faecalis [13] = experiment: Antibacterial activity against Enterococcus faecalis MTCC 439 incubated overnight by broth dilution technique; assay type: functional, organism-based
Klebsiella pneumoniae [14] = experiment: Antibacterial activity against Klebsiella pneumoniae ATCC 700603 incubated overnight by broth dilution technique; assay type: functional, organism-based
Escherichia coli [15] = experiment: Antibacterial activity against Escherichia coli ATCC 25922 incubated overnight by broth dilution technique; assay type: functional, organism-based
Escherichia coli [16] = experiment: Antibacterial activity against Escherichia coli ATCC 25922 incubated for 24 hrs by tube dilution method; assay type: functional
Klebsiella pneumoniae [17] = experiment: Antibacterial activity against Klebsiella pneumoniae ATCC 15380 incubated for 24 hrs by tube dilution method; assay type: functional
Pseudomonas aeruginosa [18] = experiment: Antibacterial activity against Pseudomonas aeruginosa ATCC 12454 incubated for 24 hrs by tube dilution method; assay type: functional
Staphylococcus aureus [19] = experiment: Antibacterial activity against Staphylococcus aureus ATCC 25923 incubated for 24 hrs by tube dilution method; assay type: functional
Streptococcus pyogenes = experiment: Antibacterial activity against Streptococcus pyogenes ATCC 35552 incubated for 24 hrs by tube dilution method; assay type: functional

Compound: C[C@@H]1CN(c2c(F)c(N)c3c(=O)c(C(=O)O)cn(C4CC4)c3c2F)C[C@H](C)N1 [SPARFLOXACIN]
MIC (Pseudomonas aeruginosa [5]): 0.0125 mg/L (≈ 0.0319 µM) | MIC (Escherichia coli [6]): 0.0125 mg/L (≈ 0.0319 µM) | MIC (Staphylococcus aureus [7]): 0.0125 mg/L (≈ 0.0319 µM)

Compound: CCOCSc1nnc(-c2nnn(-c3ccccc3Cl)c2-c2nnc(SCOCC)o2)o1
MIC (Streptococcus pneumoniae): 31.2 mg/L (≈ 63 µM) | MIC (Bacillus subtilis): 31.2 mg/L (≈ 63 µM) | MIC (Staphylococcus aureus [8]): 31.2 mg/L (≈ 63 µM) | MIC (Pseudomonas aeruginosa [9]): 31.2 mg/L (≈ 63 µM) | MIC (Escherichia coli [10]): 31.2 mg/L (≈ 63 µM) | MIC (Klebsiella pneumoniae [11]): 31.2 mg/L (≈ 63 µM)

Compound: O=C(O)c1ccc(-n2cc(COc3cccc4cccnc34)nn2)cc1
IC50 (Salmonella enterica): 106 mg/L (≈ 306 µM) | IC50 (Pseudomonas aeruginosa [12]): 106 mg/L (≈ 306 µM) | IC50 (Enterococcus faecalis [13]): 106 mg/L (≈ 306 µM) | IC50 (Klebsiella pneumoniae [14]): 106 mg/L (≈ 306 µM) | IC50 (Escherichia coli [15]): 106 mg/L (≈ 306 µM)

Compound: CC(=O)OCCCSc1nnc(-c2nnn(-c3ccccc3Cl)c2-c2nnc(SCCCOC(C)=O)o2)o1
MIC (Streptococcus pneumoniae): 31.2 mg/L (≈ 53.9 µM) | MIC (Bacillus subtilis): 31.2 mg/L (≈ 53.9 µM) | MIC (Staphylococcus aureus [8]): 31.2 mg/L (≈ 53.9 µM) | MIC (Pseudomonas aeruginosa [9]): 31.2 mg/L (≈ 53.9 µM) | MIC (Escherichia coli [10]): 31.2 mg/L (≈ 53.9 µM) | MIC (Klebsiella pneumoniae [11]): 31.2 mg/L (≈ 53.9 µM)

Compound: CC1CCN(c2c(Cl)c3c(c(=O)c(C(=O)O)cn3C3CC3)c3[nH]nnc23)CC1
MIC (Pseudomonas aeruginosa [5]): 0.05 mg/L (≈ 0.124 µM) | MIC (Escherichia coli [6]): 0.05 mg/L (≈ 0.124 µM) | MIC (Staphylococcus aureus [7]): 0.05 mg/L (≈ 0.124 µM)

Compound: CC(=O)OCCSc1nnc(-c2nnn(-c3ccccc3Cl)c2-c2nnc(SCCOC(C)=O)o2)o1
MIC (Streptococcus pneumoniae): 31.2 mg/L (≈ 56.6 µM) | MIC (Bacillus subtilis): 31.2 mg/L (≈ 56.6 µM) | MIC (Staphylococcus aureus [8]): 31.2 mg/L (≈ 56.6 µM) | MIC (Pseudomonas aeruginosa [9]): 31.2 mg/L (≈ 56.6 µM) | MIC (Escherichia coli [10]): 31.2 mg/L (≈ 56.6 µM) | MIC (Klebsiella pneumoniae [11]): 31.2 mg/L (≈ 56.6 µM)

Compound: CC(=O)OCC(CSc1nnc(-c2nnn(-c3ccccc3Cl)c2-c2nnc(SCC(COC(C)=O)OC(C)=O)o2)o1)OC(C)=O (stereo unspecified)
MIC (Streptococcus pneumoniae): 31.2 mg/L (≈ 44.9 µM) | MIC (Bacillus subtilis): 31.2 mg/L (≈ 44.9 µM) | MIC (Staphylococcus aureus [8]): 31.2 mg/L (≈ 44.9 µM) | MIC (Pseudomonas aeruginosa [9]): 31.2 mg/L (≈ 44.9 µM) | MIC (Escherichia coli [10]): 31.2 mg/L (≈ 44.9 µM) | MIC (Klebsiella pneumoniae [11]): 31.2 mg/L (≈ 44.9 µM)

Next, values leading:

MIC (Bacillus cereus): 2 mg/L (≈ 3.4 µM) | MIC (Enterococcus faecalis [1]): 2 mg/L (≈ 3.4 µM) | MIC (Staphylococcus aureus [2]): 2 mg/L (≈ 3.4 µM) | MIC (Proteus mirabilis): 2 mg/L (≈ 3.4 µM) | MIC (Escherichia coli [3]): 2 mg/L (≈ 3.4 µM) | MIC (Pseudomonas aeruginosa [4]): 2 mg/L (≈ 3.4 µM) | MIC (Candida albicans): 2 mg/L (≈ 3.4 µM) | MIC (Aspergillus brasiliensis): 2 mg/L (≈ 3.4 µM)
Compound: CCCCCCCCCCCCn1nnc(-c2n[nH]c(=S)n2-c2ccccc2)c1-c1n[nH]c(=S)n1-c1ccccc1

IC50 (Salmonella enterica): 164 mg/L (≈ 495 µM) | IC50 (Pseudomonas aeruginosa [12]): 164 mg/L (≈ 495 µM) | IC50 (Enterococcus faecalis [13]): 164 mg/L (≈ 495 µM) | IC50 (Klebsiella pneumoniae [14]): 164 mg/L (≈ 495 µM) | IC50 (Escherichia coli [15]): 164 mg/L (≈ 495 µM)
Compound: COc1ccc(-n2cc(COc3cccc4cccnc34)nn2)cc1

MIC (Bacillus cereus): 2 mg/L (≈ 3.57 µM) | MIC (Enterococcus faecalis [1]): 2 mg/L (≈ 3.57 µM) | MIC (Staphylococcus aureus [2]): 2 mg/L (≈ 3.57 µM) | MIC (Proteus mirabilis): 2 mg/L (≈ 3.57 µM) | MIC (Escherichia coli [3]): 2 mg/L (≈ 3.57 µM) | MIC (Pseudomonas aeruginosa [4]): 2 mg/L (≈ 3.57 µM) | MIC (Candida albicans): 2 mg/L (≈ 3.57 µM) | MIC (Aspergillus brasiliensis): 2 mg/L (≈ 3.57 µM)
Compound: CCCCCCCCCCn1nnc(-c2n[nH]c(=S)n2-c2ccccc2)c1-c1n[nH]c(=S)n1-c1ccccc1

MIC (Bacillus cereus): 1 mg/L (≈ 2.29 µM) | MIC (Enterococcus faecalis [1]): 1 mg/L (≈ 2.29 µM) | MIC (Staphylococcus aureus [2]): 1 mg/L (≈ 2.29 µM) | MIC (Proteus mirabilis): 1 mg/L (≈ 2.29 µM) | MIC (Escherichia coli [3]): 1 mg/L (≈ 2.29 µM) | MIC (Pseudomonas aeruginosa [4]): 1 mg/L (≈ 2.29 µM) | MIC (Candida albicans): 1 mg/L (≈ 2.29 µM) | MIC (Aspergillus brasiliensis): 1 mg/L (≈ 2.29 µM)
Compound: CCCCCCCCCCn1nnc(-c2n[nH]c(=S)n2N)c1-c1n[nH]c(=S)n1N

MIC (Streptococcus pneumoniae): 31.2 mg/L (≈ 59.6 µM) | MIC (Bacillus subtilis): 31.2 mg/L (≈ 59.6 µM) | MIC (Staphylococcus aureus [8]): 31.2 mg/L (≈ 59.6 µM) | MIC (Pseudomonas aeruginosa [9]): 31.2 mg/L (≈ 59.6 µM) | MIC (Escherichia coli [10]): 31.2 mg/L (≈ 59.6 µM) | MIC (Klebsiella pneumoniae [11]): 31.2 mg/L (≈ 59.6 µM)
Compound: CCOCCSc1nnc(-c2nnn(-c3ccccc3Cl)c2-c2nnc(SCCOCC)o2)o1

MIC (Escherichia coli [16]): 5.5 mg/L (≈ 10.9 µM) | MIC (Klebsiella pneumoniae [17]): 5.5 mg/L (≈ 10.9 µM) | MIC (Pseudomonas aeruginosa [18]): 5.5 mg/L (≈ 10.9 µM) | MIC (Staphylococcus aureus [19]): 5.5 mg/L (≈ 10.9 µM) | MIC (Streptococcus pyogenes): 5.5 mg/L (≈ 10.9 µM)
Compound: O=Cc1cn(-c2ccccc2)nc1-c1cc(Cl)ccc1OCc1cn(Cc2cccc(Cl)c2)nn1

MIC (Bacillus cereus): 2 mg/L (≈ 3.76 µM) | MIC (Enterococcus faecalis [1]): 2 mg/L (≈ 3.76 µM) | MIC (Staphylococcus aureus [2]): 2 mg/L (≈ 3.76 µM) | MIC (Proteus mirabilis): 2 mg/L (≈ 3.76 µM) | MIC (Escherichia coli [3]): 2 mg/L (≈ 3.76 µM) | MIC (Pseudomonas aeruginosa [4]): 2 mg/L (≈ 3.76 µM) | MIC (Candida albicans): 2 mg/L (≈ 3.76 µM) | MIC (Aspergillus brasiliensis): 2 mg/L (≈ 3.76 µM)
Compound: CCCCCCCCn1nnc(-c2n[nH]c(=S)n2-c2ccccc2)c1-c1n[nH]c(=S)n1-c1ccccc1

MIC (Escherichia coli [16]): 5.5 mg/L (≈ 11.9 µM) | MIC (Klebsiella pneumoniae [17]): 5.5 mg/L (≈ 11.9 µM) | MIC (Pseudomonas aeruginosa [18]): 5.5 mg/L (≈ 11.9 µM) | MIC (Staphylococcus aureus [19]): 5.5 mg/L (≈ 11.9 µM) | MIC (Streptococcus pyogenes): 5.5 mg/L (≈ 11.9 µM)
Compound: Cc1cc(C)cc(Cn2cc(COc3ccccc3-c3nn(-c4ccccc4)cc3C=O)nn2)c1

MIC (Escherichia coli [16]): 5.5 mg/L (≈ 10.7 µM) | MIC (Klebsiella pneumoniae [17]): 5.5 mg/L (≈ 10.7 µM) | MIC (Pseudomonas aeruginosa [18]): 5.5 mg/L (≈ 10.7 µM) | MIC (Staphylococcus aureus [19]): 5.5 mg/L (≈ 10.7 µM) | MIC (Streptococcus pyogenes): 5.5 mg/L (≈ 10.7 µM)
Compound: O=Cc1cn(-c2ccccc2)nc1-c1ccccc1OCc1cn(Cc2ccc(Br)cc2)nn1

MIC (Escherichia coli [16]): 5.5 mg/L (≈ 12.6 µM) | MIC (Klebsiella pneumoniae [17]): 5.5 mg/L (≈ 12.6 µM) | MIC (Pseudomonas aeruginosa [18]): 5.5 mg/L (≈ 12.6 µM) | MIC (Staphylococcus aureus [19]): 5.5 mg/L (≈ 12.6 µM) | MIC (Streptococcus pyogenes): 5.5 mg/L (≈ 12.6 µM)
Compound: O=Cc1cn(-c2ccccc2)nc1-c1ccccc1OCc1cn(Cc2ccccc2)nn1

MIC (Bacillus cereus): 1 mg/L (≈ 2.03 µM) | MIC (Enterococcus faecalis [1]): 1 mg/L (≈ 2.03 µM) | MIC (Staphylococcus aureus [2]): 1 mg/L (≈ 2.03 µM) | MIC (Proteus mirabilis): 1 mg/L (≈ 2.03 µM) | MIC (Escherichia coli [3]): 1 mg/L (≈ 2.03 µM) | MIC (Pseudomonas aeruginosa [4]): 1 mg/L (≈ 2.03 µM) | MIC (Candida albicans): 1 mg/L (≈ 2.03 µM) | MIC (Aspergillus brasiliensis): 1 mg/L (≈ 2.03 µM)
Compound: CCCCCCCCCCCCCCn1nnc(-c2n[nH]c(=S)n2N)c1-c1n[nH]c(=S)n1N
